The target in one experiment is T1, Cbk1^251-756-Mob2 (Saccharomyces cerevisiae, UniProt P43563+P53894).
T1 construct: His6-Cbk1^251–756 was co-expressed with GST-Mob2 (full length or 45–287); His6 (N); made in house
T1 sequence (P53894 251-756): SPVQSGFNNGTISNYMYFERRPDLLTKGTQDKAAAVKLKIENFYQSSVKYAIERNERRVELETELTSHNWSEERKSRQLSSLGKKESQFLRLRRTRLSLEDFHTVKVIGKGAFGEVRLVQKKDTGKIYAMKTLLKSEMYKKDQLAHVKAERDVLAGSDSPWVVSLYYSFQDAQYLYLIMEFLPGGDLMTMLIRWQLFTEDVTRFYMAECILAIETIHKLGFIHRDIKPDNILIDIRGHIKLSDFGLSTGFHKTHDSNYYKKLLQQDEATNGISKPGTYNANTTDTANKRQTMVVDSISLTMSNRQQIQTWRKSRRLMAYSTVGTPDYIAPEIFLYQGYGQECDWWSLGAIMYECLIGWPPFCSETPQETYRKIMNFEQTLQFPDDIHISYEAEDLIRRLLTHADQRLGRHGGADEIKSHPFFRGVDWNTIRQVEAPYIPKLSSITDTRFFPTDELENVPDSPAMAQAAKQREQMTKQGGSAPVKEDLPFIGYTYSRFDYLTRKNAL
T1 sequence (P43563 1-287 partner): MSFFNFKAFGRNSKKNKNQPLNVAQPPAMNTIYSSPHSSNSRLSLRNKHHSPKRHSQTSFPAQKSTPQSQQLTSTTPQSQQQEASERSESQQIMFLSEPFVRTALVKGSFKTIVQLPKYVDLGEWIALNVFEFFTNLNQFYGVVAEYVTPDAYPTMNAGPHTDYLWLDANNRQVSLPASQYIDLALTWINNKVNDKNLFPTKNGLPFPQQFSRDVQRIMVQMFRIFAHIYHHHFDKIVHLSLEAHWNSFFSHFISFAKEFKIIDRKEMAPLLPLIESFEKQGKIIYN
Briefly: FP direct titration, Cbk1^251-756-Mob2 (WT). The class given is binding. As for the experimental part:
(§1) His6-Cbk1^251–756 was co-expressed with GST-Mob2 (full length or 45–287). Cbk1 kinase domain alone (352–756 or 352–692) was expressed as GST-Cbk1-His6. All constructs were bacterially expressed and purified on a Ni-NTA resin (Qiagen) followed by glutathione Sepharose beads (GE Biosciences). For crystallization, tags were cleaved with TEV protease followed by cation exchange chromatography on a Resource S column. All Cbk1 preparations were subsequently dialyzed into Cbk1 buffer (20 mM Tris-HCl, 150 mM NaCl, 2 mM DTT [pH 8.0]).
(§2) For FP-based binding affinity measurements, different docking peptides (pepAce2: GSGSIIVTTNSANGGYQFP; pepSSD1: TTEQSDFKFP; pepHM: IGYTYSRFDY; pepHM-P: IGYpTYSRFDY) were N-terminally (pepAce2 and pepSSD1) or C-terminally (pepHM and pepHM-P) labeled with carboxyfluorescein (CF) fluorescent dyes.
Change in the FP signal in direct binding affinity measurements was monitored as a function of increasing concentration of protein with a Synergy H4 (BioTek Instruments) plate reader in 384-well plates. The labeled peptides were at 20 nM in 20 mM Tris (pH 8.0), 100 mM NaCl, 0.05% Brij35P, 2 mM DTT. The resulting binding isotherms were fit to a quadratic binding equation. The affinity of the unlabeled peptides was measured in steady-state competition experiments: 20 nM labeled reporter was mixed with protein samples in a concentration to achieve ~60%–80% complex formation. Subsequently, increasing amounts of unlabeled peptide were added, and the FP signal was measured as described earlier for direct titration experiments. The Kd for each unlabeled peptide interaction was determined by fitting the data to a competition binding equation. Titration experiments were carried out in triplicate, and the average FP signal was used for fitting the data with OriginPro 7.

The target of a further experiment is T2, Cbk1^251-756(F699A)-Mob2 (Saccharomyces cerevisiae, UniProt P43563+P53894, F699A).
T2 construct: His6-Cbk1^251–756 was co-expressed with GST-Mob2 (full length or 45–287); His6 (N); made in house
Put plainly: biochemical. The experiment is classed as binding. As for the experimental part:
as §1, §2
(§3) Change in the FP signal in direct binding affinity measurements was monitored as a function of increasing concentration of protein with a Synergy H4 (BioTek Instruments) plate reader in 384-well plates. The labeled peptides were at 20 nM in 20 mM Tris (pH 8.0), 100 mM NaCl, 0.05% Brij35P, 2 mM DTT. […] Subsequently, increasing amounts of unlabeled peptide were added, and the FP signal was measured as described earlier for direct titration experiments. The Kd for each unlabeled peptide interaction was determined by fitting the data to a competition binding equation. […]

The target of another experiment is T3, Cbk1^Δ730–756–Mob2 (Saccharomyces cerevisiae, UniProt P43563+P53894).
T3 construct: His6-Cbk1^251–756 was co-expressed with GST-Mob2 (full length or 45–287); His6 (N); made in house
Put plainly: biochemical. The experiment is classed as binding. From the text: ND, not determined. […] (PDF) Click here for additional data file.

For a further experiment, the target named is T4, Cbk1^251-756(F447A)-Mob2 (Saccharomyces cerevisiae, UniProt P43563+P53894, F447A).
T4 construct: His6-Cbk1^251–756 was co-expressed with GST-Mob2 (full length or 45–287); His6 (N); made in house
Put plainly: biochemical. The class given is binding. As for the experimental part: as §1, §2, §3

The target in experiment [1] is T5, Cbk1^352–692 kinase domain (S. cerevisiae, UniProt P53894 352-692).
T5 construct: also called catalytic domain alone; source: bacterially expressed, purified (Ni-NTA, glutathione Sepharose); not shown: His6, C-terminal, kept
T5 sequence (looked up): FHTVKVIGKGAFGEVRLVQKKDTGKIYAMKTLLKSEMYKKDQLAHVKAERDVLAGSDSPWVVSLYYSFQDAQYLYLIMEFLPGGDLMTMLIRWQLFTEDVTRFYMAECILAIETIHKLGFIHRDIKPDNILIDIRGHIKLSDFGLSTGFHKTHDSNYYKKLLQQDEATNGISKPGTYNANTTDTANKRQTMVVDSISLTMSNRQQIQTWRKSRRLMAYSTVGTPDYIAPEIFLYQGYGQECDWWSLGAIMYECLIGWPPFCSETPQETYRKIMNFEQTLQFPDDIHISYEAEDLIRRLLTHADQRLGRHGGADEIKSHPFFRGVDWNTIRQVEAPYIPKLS
Briefly: pull-down; MBP fusions on amylose beads incubated with 1 μM purified Cbk1 on ice for 15 min, washed 3× with PBS; GelCode Blue or immunoblot (His or pS570 antibodies). To be noted: both partners purified.

Experiment [2] deals with T6, Cbk1^352–756 kinase domain (S. cerevisiae, UniProt P53894 352-756).
T6 construct: source: bacterially expressed, purified (Ni-NTA, glutathione Sepharose); not shown: His6, C-terminal, kept
T6 sequence (looked up): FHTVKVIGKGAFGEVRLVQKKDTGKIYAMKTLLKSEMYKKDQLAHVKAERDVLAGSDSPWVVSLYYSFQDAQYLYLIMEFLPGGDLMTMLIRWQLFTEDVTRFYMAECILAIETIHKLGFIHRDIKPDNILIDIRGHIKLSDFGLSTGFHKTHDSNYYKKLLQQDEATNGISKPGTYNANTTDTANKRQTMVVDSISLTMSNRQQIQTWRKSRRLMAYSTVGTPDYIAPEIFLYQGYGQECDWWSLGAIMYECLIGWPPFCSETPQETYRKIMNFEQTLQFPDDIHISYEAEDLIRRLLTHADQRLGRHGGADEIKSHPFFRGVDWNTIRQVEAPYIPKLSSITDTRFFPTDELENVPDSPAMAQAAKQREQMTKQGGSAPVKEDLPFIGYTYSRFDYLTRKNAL
Briefly: pull-down; pull-down of Cbk1^352–756 by bead-bound Ace2 or Ssd1 docking motifs in competition with unbound Ace2^270–290. Conditions: both partners purified.

Experiment [3] addresses T7, Cbk1(D475A), residues 251-756, intact hydrophobic motif (S. cerevisiae, UniProt P53894 251-756, D475A).
T7 construct: crystallised with AMPPNP; also called Cbk1(HM-T); source: bacterially expressed with Mob2, purified (Ni-NTA, glutathione Sepharose, TEV cleavage, Resource S); not shown: His6, N-terminal, cleaved
T7 sequence (looked up): T1 sequence (P53894 251-756) with D225A
Briefly: crystal structure; Cbk1(D475A) or Cbk1(D475A/T743E) with Mob2, tags cleaved, 4–6 mg/ml, 2 mM AMPPNP, 2 mM MgCl2, 2 mM TCEP; microbatch under oil at 23°C; three crystal forms. To be noted: both partners purified.

Experiment [4] concerns the target T8, Cbk1(D475A/T743E), residues 251-756 (S. cerevisiae, UniProt P53894 251-756, D475A | T743E).
T8 construct: two crystal forms (A, 4.5 Å; B, 3.6 Å); also called Cbk1(HM-E); Cbk1(T743E); source: bacterially expressed with Mob2, purified (Ni-NTA, glutathione Sepharose, TEV cleavage, Resource S); not shown: His6, N-terminal, cleaved
T8 sequence (looked up): T1 sequence (P53894 251-756) with D225A, T493E
Described as above. Conditions: both partners purified.

The subject of another experiment is Cbk1. Put plainly: In vitro kinase assay resolved by SDS-PAGE, Ace2/Ssd1 fragments. The class given is biochemical, Saccharomyces cerevisiae. To be noted: Cbk1^352–756 kinase domain (S5D). Here is the method:
Kinase assays resolved by SDS-PAGE were conducted with GST-Ace2 or GST-Ssd1 fusions. Reactions contained 1–5 μM substrate, 100–250 nM Cbk1, 5 mM MnCl2, 2 mM DTT, 20 μM ATP, 10 μCi γ-^32P-ATP in Cbk1 buffer. Samples were removed at indicated time points and quenched with SDS-PAGE buffer, followed by SDS-PAGE separation. ^32P was visualized using a Storm phosphorimager (GE Biosciences) and quantified using ImageQuant software.

Where a chain is given by its changes, count along the chain named. Read-outs that look alike come from different tables or passages of the source. Non-standard residues stand in square brackets, D forms with d. Residues, ends and D or L forms follow the SMILES beside them. pT = C[C@@H](OP(=O)(O)O)[C@H](N)C(=O)O

T2 sequence (P53894 251-756 F699A, one chain of several): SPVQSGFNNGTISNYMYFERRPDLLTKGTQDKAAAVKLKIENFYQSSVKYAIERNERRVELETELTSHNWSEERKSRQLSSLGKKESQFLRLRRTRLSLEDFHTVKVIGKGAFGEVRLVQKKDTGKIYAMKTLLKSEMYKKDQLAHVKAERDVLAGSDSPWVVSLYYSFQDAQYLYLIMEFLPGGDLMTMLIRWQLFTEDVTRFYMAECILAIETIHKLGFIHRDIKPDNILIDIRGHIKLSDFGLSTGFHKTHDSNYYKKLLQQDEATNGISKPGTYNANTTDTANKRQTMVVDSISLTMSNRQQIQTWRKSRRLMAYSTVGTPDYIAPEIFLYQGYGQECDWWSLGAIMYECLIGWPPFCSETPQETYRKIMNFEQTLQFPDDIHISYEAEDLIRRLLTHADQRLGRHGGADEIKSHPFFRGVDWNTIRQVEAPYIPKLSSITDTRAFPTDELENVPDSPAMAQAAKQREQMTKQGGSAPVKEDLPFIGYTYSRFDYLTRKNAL
T4 sequence (P53894 251-756 F447A, one chain of several): as the sequence (P53894 251-756 F699A, one chain of several) above, with F197A, A449F counted along it

Take `CC[C@H](C)[C@H](NC(=O)[C@H](CO)NC(=O)CNC(=O)[C@H](CO)NC(=O)CN)C(=O)N[C@H](C(=O)N[C@H](C(=O)N[C@H](C(=O)N[C@H](C(=O)N[C@@H](CC(N)=O)C(=O)N[C@@H](CO)C(=O)N[C@@H](C)C(=O)N[C@@H](CC(N)=O)C(=O)NCC(=O)NCC(=O)N[C@@H](Cc1ccc(O)cc1)C(=O)N[C@@H](CCC(N)=O)C(=O)N[C@@H](Cc1ccccc1)C(=O)N1CCC[C@H]1C(=O)O)[C@@H](C)O)[C@@H](C)O)C(C)C)[C@@H](C)CC` [pepAce2] (H-GSGSIIVTTNSANGGYQFP-OH): the Kd was 5 µM on Cbk1^251-756-Mob2 (CF-labeled peptide 20 nM, Tris pH 8.0, triplicate, read-out: peptide binding affinity (table in Fig 5C)); approximately 6 µM on Cbk1^251-756-Mob2 (labeled synthetic peptides, Cbk1–Mob2 (S5H Fig), read-out: Kd); 5 µM at Cbk1^251-756(F699A)-Mob2.

As to `CC[C@H](C)[C@H](N)C(=O)NCC(=O)N[C@@H](Cc1ccc(O)cc1)C(=O)N[C@H](C(=O)N[C@@H](Cc1ccc(O)cc1)C(=O)N[C@@H](CO)C(=O)N[C@@H](CCCNC(=N)N)C(=O)N[C@@H](Cc1ccccc1)C(=O)N[C@@H](CC(=O)O)C(=O)N[C@@H](Cc1ccc(O)cc1)C(=O)O)[C@@H](C)OP(=O)(O)O` [pepHM-P] (H-IGY[pT]YSRFDY-OH), the Kd at Cbk1^Δ730–756–Mob2 was approximately 6 µM; on Cbk1^251-756(F447A)-Mob2 it was 33 µM.

B1: Ace2^270–290 docking motif, MBP fusion (domain or fragment, S. cerevisiae, UniProt P21192 270-290, looked up)
chain: NAIIVTTNSANGGYQFPPPTL
notes: Ace2 of budding yeast, residues 270-290; also called WT Ace2 (two glycine residues)
With B1, the binding result in experiment [1] and in [2] was “binds” throughout.

B2: Mob2, residues 45-287 (natural protein, S. cerevisiae, UniProt P43563 45-287, looked up)
chain: LRNKHHSPKRHSQTSFPAQKSTPQSQQLTSTTPQSQQQEASERSESQQIMFLSEPFVRTALVKGSFKTIVQLPKYVDLGEWIALNVFEFFTNLNQFYGVVAEYVTPDAYPTMNAGPHTDYLWLDANNRQVSLPASQYIDLALTWINNKVNDKNLFPTKNGLPFPQQFSRDVQRIMVQMFRIFAHIYHHHFDKIVHLSLEAHWNSFFSHFISFAKEFKIIDRKEMAPLLPLIESFEKQGKIIYN
notes: the crystallised construct begins at 45 (N-terminal Mob2 region 45-110 not seen in the density); source: bacterially expressed with Cbk1, purified (Ni-NTA, glutathione Sepharose, TEV cleavage, Resource S); not shown: GST, N-terminal, cleaved
Take B2: the binding result in [3] and in [4] was “binds” each time.

B3: Ace2^102–306: Ace2 fragment, kinase substrate containing docking motif (protein, UniProt P21192 102-306, looked up, fragment)
chain: ENNKVSHYSKKSMSSHKRGLSGTAIFGFLGHNKTLSISSLQQSILNMSKDPQPMELINELGNHNTVKNNNDDFDHIRENDGENSYLSQVLLKQQEELRIALEKQKEVNEKLEKQLRDNQIQQEKLRKVLEEQEEVAQKLVSGATNSNSKPGSPVILKTPAMQNGRMKDNAIIVTTNSANGGYQFPPPTLISPRMSNTSINGSPSR
On to B3, for which the “enhancement of phosphorylation by docking motif” value with Cbk1 was 100 fold.
